Counter-ions that a name gives are not always drawn. Like-named read-outs stand apart in the source and are kept apart here.
What was measured:
[1] = tested on: NCI-H292 lung cancer cells; experiment: FDA drug screening, complete media vs cholesterol-free media without statin (TABLE 1); assay type: cell-based, human
[2] = tested on: NCI-H292 lung cancer cells; experiment: FDA drug screening, complete media vs cholesterol-free media with simvastatin (TABLE 2); assay type: cell-based, human
[3] = Complete minus Cholesterol-free, >0 enhanced anti-cancer activity, about 0 neutral, <0 antagonist
[4] = NCI-H292 cells, cholesterol-free media without statin, FDA drug library screen
[5] = NCI-H292 cells, complete media, FDA drug library screen
[6] = Complete minus Cholesterol-free, […]
[7] = NCI-H292 cells, cholesterol-free media without statin
[8] = NCI-H292 cells, FDA drug library screen, cholesterol-free media with simvastatin 0.04 μM
[9] = NCI-H292 cells, FDA drug library screen, complete media
[10] = complete media vs cholesterol-free media + simvastatin (0.04 μM), […]
[11] = complete media vs cholesterol-free media + simvastatin (0.04 μM), >0 enhanced anti-cancer activity, about 0 neutral, <0 antagonist
[12] = NCI-H292 cells in cholesterol-free media without statin
[13] = NCI-H292 cells in complete media
[14] = NCI-H292 cells, FDA library drug in cholesterol-free media with simvastatin 0.04 μM
[15] = NCI-H292 cells, FDA library drug in complete media
[16] = Complete minus Cholesterol-free, greater than 0 enhanced anti-cancer activity, about 0 neutral, below 0 antagonists
[17] = complete vs cholesterol-free media, greater than 0 enhanced anti-cancer activity, about 0 neutral, below 0 antagonists
[18] = complete media minus cholesterol-free media + simvastatin, >0 enhanced anti-cancer activity, about 0 neutral, <0 antagonist
[19] = NCI-H292 cells, cholesterol-free media with simvastatin 0.04 μM, cell growth value in FDA drug screen
[20] = NCI-H292 cells, complete media, cell growth value in FDA drug screen
[21] = complete vs cholesterol-free media, >0 enhanced anti-cancer activity, about 0 neutral, <0 antagonist

CC(=O)[C@]1(O)Cc2c(O)c3c(c(O)c2[C@@H](O[C@H]2C[C@H](N)[C@H](O)[C@H](C)O2)C1)C(=O)c1ccccc1C3=O [Idarubicin (hydrochloride)]
Difference [1, 3]: −0.01 | Cholesterol-free [1, 4]: −0.02296 | Complete [1, 5]: −0.02941 | Cholesterol-free media + simvastatin (0.04 μM) ([2]; NCI-H292 cells, cholesterol-free media with simvastatin 0.04 μM, FDA drug library screen (TABLE 2)): 0.008408 | Complete Media ([2]; NCI-H292 cells, complete media, FDA drug library screen (TABLE 2)): 0.002721 | Difference ([2]; complete media minus cholesterol-free media + simvastatin (0.04 μM), >0 enhanced anti-cancer activity, about 0 neutral, <0 antagonist): −0.01

Baricitinib (phosphate)
Difference [1, 6]: −0.20 | Cholesterol-free [1, 7]: 0.7762 | Complete ([1]; NCI-H292 cells, complete media): 0.5811 | Cholesterol-free media + simvastatin (0.04 μM) [2, 8]: 0.6632 | Complete Media [2, 9]: 0.5619 | Difference [2, 10]: −0.10

C[C@]12C=CC(=O)N[C@@H]1CC[C@@H]1[C@@H]2CC[C@]2(C)[C@@H](C(=O)Nc3cc(C(F)(F)F)ccc3C(F)(F)F)CC[C@@H]12 [Dutasteride]
Cholesterol-free [1]: 0.7204 | Complete [1]: 0.8443 | Difference [1]: 0.12 | Cholesterol-free media + simvastatin (0.04 μM) [2]: 1.633 | Complete Media [2]: 1.205 | Difference [2]: −0.43

CCOC(=O)C(C)(C)Oc1ccc(Cl)cc1 [Clofibrate]
Difference ([1]; Complete minus Cholesterol-free, greater than 0 enhanced anti-cancer activity, about 0 neutral, below 0 antagonist): −0.12 | Cholesterol-free ([1]; NCI-H292 cells, FDA drug library screen, cholesterol-free media without statin): 1.138 | Complete [1, 9]: 1.018 | Cholesterol-free media + simvastatin (0.04 μM) [2, 8]: 1.786 | Complete Media [2, 9]: 1.654 | Difference [2, 11]: −0.13

Cc1ncc(CO)c(CO)c1O.Cl [Pyridoxine (hydrochloride)]
Difference [1, 6]: −0.61 | Cholesterol-free [1, 12]: 1.496 | Complete [1, 13]: 0.8868 | Cholesterol-free media + simvastatin (0.04 μM) [2, 14]: 1.33 | Complete Media [2, 15]: 0.9936 | Difference [2, 10]: −0.34

NCCc1c[nH]c2ccc(O)cc12 [Serotonin hydrochloride]
Difference [1, 16]: −0.64 | Cholesterol-free [1, 12]: 1.639 | Complete [1, 13]: 1.003 | Cholesterol-free media + simvastatin (0.04 μM) ([2]; NCI-H292 cells, drug in cholesterol-free media with simvastatin 0.04 μM): 1.379 | Complete Media ([2]; NCI-H292 cells, drug in complete media): 1.18 | Difference [2, 11]: −0.20

CNCCC(Oc1ccc(C(F)(F)F)cc1)c1ccccc1 (centres unmarked) [Fluoxetine (hydrochloride)]
Cholesterol-free [1, 7]: 1.383 | Complete ([1]; NCI-H292 cells, complete media): 0.9864 | Difference [1, 17]: −0.40 | Cholesterol-free media + simvastatin (0.04 μM) [2, 8]: 0.8887 | Complete Media [2, 9]: 1.043 | Difference [2, 18]: 0.15

Cc1ccc(-c2cc(C(F)(F)F)nn2-c2ccc(S(N)(=O)=O)cc2)cc1 [Celecoxib]
Cholesterol-free [1, 7]: 1.362 | Complete ([1]; NCI-H292 cells, complete media): 0.9472 | Difference [1, 17]: −0.42 | Cholesterol-free media + simvastatin (0.04 μM) [2, 19]: 1.271 | Complete Media [2, 20]: 1.302 | Difference [2, 18]: 0.03

N#C[C@@H]1CCCN1C(=O)CNC12CC3CC(CC(O)(C3)C1)C2 [Vildagliptin]
Difference [1, 16]: −0.50 | Cholesterol-free [1, 12]: 1.213 | Complete [1, 13]: 0.7138 | Cholesterol-free media + simvastatin (0.04 μM) [2, 8]: 1.588 | Complete Media [2, 9]: 1.466 | Difference [2, 11]: −0.12

Nc1ccc(S(=O)(=O)Nc2ncccn2)cc1 [Sulfadiazine]
Cholesterol-free [1, 7]: 1.21 | Complete ([1]; NCI-H292 cells, complete media): 0.7631 | Difference [1, 17]: −0.45 | Cholesterol-free media + simvastatin (0.04 μM) [2, 19]: 1.499 | Complete Media [2, 20]: 1.555 | Difference [2, 18]: 0.06

C[C@@H](O[C@H]1OCCN(Cc2n[nH]c(=O)[nH]2)[C@H]1c1ccc(F)cc1)c1cc(C(F)(F)F)cc(C(F)(F)F)c1 [Aprepitant]
Difference [1, 3]: −0.20 | Cholesterol-free [1, 7]: 0.998 | Complete ([1]; NCI-H292 cells, complete media): 0.7992 | Cholesterol-free media + simvastatin (0.04 μM) [2, 19]: 1.036 | Complete Media [2, 20]: 1.144 | Difference [2, 18]: 0.11

CO/N=C(\C(=O)N[C@@H]1C(=O)N2C(C(=O)[O-])=C(C[N+]3(C)CCCC3)CS[C@H]12)c1csc(N)n1 [Cefepime (Dihydrochloride Monohydrate)]
Difference [1, 16]: −0.52 | Cholesterol-free [1, 12]: 1.209 | Complete [1, 13]: 0.6874 | Cholesterol-free media + simvastatin (0.04 μM) [2, 8]: 1.15 | Complete Media [2, 9]: 1.537 | Difference [2, 18]: 0.39

CC(C)NNC(=O)c1ccncc1 [Iproniazid]
Difference [1, 16]: −0.56 | Cholesterol-free [1, 12]: 1.339 | Complete [1, 13]: 0.7813 | Cholesterol-free media + simvastatin (0.04 μM) [2, 8]: 1.211 | Complete Media [2, 9]: 1.75 | Difference [2, 18]: 0.54

Cc1ccc(O)c([C@H](CCN(C(C)C)C(C)C)c2ccccc2)c1 [Tolterodine]
Cholesterol-free [1]: 0.9758 | Complete [1]: 1.051 | Difference [1]: 0.08 | Cholesterol-free media + simvastatin (0.04 μM) [2]: 1.169 | Complete Media [2]: 0.8561 | Difference [2]: −0.31

COc1ccc2c(c1)c(CC(=O)OCC(=O)O)c(C)n2C(=O)c1ccc(Cl)cc1 [Acemetacin]
Cholesterol-free [1, 4]: 1.099 | Complete [1, 5]: 1.479 | Difference [1, 21]: 0.38 | Cholesterol-free media + simvastatin (0.04 μM) [2, 14]: 2.236 | Complete Media [2, 15]: 1.509 | Difference [2, 11]: −0.73

NC[C@H]1O[C@H](O[C@H]2[C@H](O[C@@H]3O[C@H](CO)[C@@H](O)[C@H]3O)[C@@H](O)[C@H](N)C[C@@H]2N)[C@H](N)[C@@H](O)[C@@H]1O.O=S(=O)(O)O [Ribostamycin (sulfate)]
Difference [1, 3]: −0.22 | Cholesterol-free [1, 7]: 1.714 | Complete ([1]; NCI-H292 cells, complete media): 1.495 | Cholesterol-free media + simvastatin (0.04 μM) [2, 14]: 1.833 | Complete Media [2, 15]: 1.478 | Difference [2, 11]: −0.36

COc1ccnc(C[S+]([O-])c2nc3ccc(OC(F)F)cc3[nH]2)c1OC (centres unmarked) [Pantoprazole (sodium hydrate)]
Cholesterol-free [1, 7]: 1.314 | Complete ([1]; NCI-H292 cells, complete media): 0.9437 | Difference [1, 17]: −0.37 | Cholesterol-free media + simvastatin (0.04 μM) [2, 8]: 1.494 | Complete Media [2, 9]: 1.718 | Difference [2, 18]: 0.22

COC(=O)C1=C(C)NC(C)=C(C(=O)OC2CCCN(Cc3ccccc3)C2)C1c1cccc([N+](=O)[O-])c1 (centres unmarked) [Benidipine (hydrochloride)]
Cholesterol-free [1, 7]: 0.9476 | Complete ([1]; NCI-H292 cells, complete media): 0.5889 | Difference [1, 17]: −0.36 | Cholesterol-free media + simvastatin (0.04 μM) [2, 19]: 1.054 | Difference [2, 18]: 0.11

CCOC(=O)[C@H](C)C[C@@H](Cc1ccc(-c2ccccc2)cc1)NC(=O)CCC(=O)O [Sacubitril]
Difference [1, 3]: −0.30 | Cholesterol-free [1, 7]: 1.009 | Complete ([1]; NCI-H292 cells, complete media): 0.7049 | Cholesterol-free media + simvastatin (0.04 μM) [2, 19]: 1.492 | Complete Media [2, 20]: 1.622 | Difference [2, 18]: 0.13

N[C@@H](CSCCCO)C(=O)O [Fudosteine]
Cholesterol-free [1, 4]: 1.084 | Complete [1, 5]: 1.177 | Difference [1, 21]: 0.09 | Cholesterol-free media + simvastatin (0.04 μM) [2, 8]: 1.309 | Complete Media [2, 9]: 1.163 | Difference [2, 11]: −0.15

Clc1ccc2c(c1)CCc1cccnc1C2=C1CCNCC1 [Desloratadine]
Cholesterol-free [1]: 1.114 | Complete [1]: 0.8419 | Difference [1]: −0.27 | Cholesterol-free media + simvastatin (0.04 μM) [2]: 0.922 | Complete Media [2]: 0.6254 | Difference [2]: −0.30

CC(C)(O)c1ccccc1CC[C@@H](SCC1(CC(=O)O)CC1)c1cccc(/C=C/c2ccc3ccc(Cl)cc3n2)c1 [Montelukast (sodium)]
Difference [1, 16]: −0.51 | Cholesterol-free [1, 12]: 1.599 | Complete [1, 13]: 1.09 | Cholesterol-free media + simvastatin (0.04 μM) [2, 19]: 0.8464 | Complete Media [2, 20]: 0.9746 | Difference [2, 18]: 0.13

From patent US20250144067A1, “PERSONALIZED STARVATION THERAPY FOR CANCER” (Faeth Therapeutics, Inc., priority 2021, published 2025)
